Like-named read-outs stand apart in the source and are kept apart here.
Tests used:
[1] = system: Key Broadleaf Weed and Crop Species; assay: Post-emergent Test II herbicidal activity (Table 5); format: in vivo; settings: post-emergence, 336 h, post-emergent, 14 days after application; for pest or weed control at 70 g/ha: 70 g ai/ha; for pest or weed control at 140 g/ha: 140 g ai/ha
How it was run: (§1)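 Test species were raised 7–21 d under greenhouse conditions until reaching the first or second true leaf, sprayed with formulated compound at 187 L/ha, and kept subirrigated to avoid wash-off. Fourteen days later, damage was rated visually on a 0–100% scale against untreated plants.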

[2] = system: Key Grass and Sedge Weeds as well as Grass Crops; assay: Post-emergent Test II herbicidal activity (Table 6); format: in vivo; settings: post-emergence, 336 h; for pest or weed control at 70 g/ha: application rate 70 g ai/ha; for pest or weed control at 140 g/ha: application rate 140 g ai/ha
How it was run: as §1

[3] = ABUTH: velvetleaf (Abutilon theophrasti), read-out: Visual Growth Reduction (%) 14 Days After Application ABUTH
[4] = AMARE: redroot pigweed (Amaranthus retroflexus), read-out: Visual Growth Reduction (%) 14 Days After Application AMARE
[5] = BRSNN: oilseed-rape, canola (Brassica napus), read-out: Visual Growth Reduction (%) 14 Days After Application BRSNN
[6] = CHEAL: lambsquarters (Chenopodium album), read-out: Visual Growth Reduction (%) 14 Days After Application CHEAL
[7] = EPHHL: wild poinsettia (Euphorbia heterophylla), read-out: Visual Growth Reduction (%) 14 Days After Application EPHHL
[8] = HELAN: sunflower (Helianthus annuus), read-out: Visual Growth Reduction (%) 14 Days After Application HELAN
[9] = VIOTR: wild pansy (Viola tricolor), read-out: Visual Growth Reduction (%) 14 Days After Application VIOTR
[10] = Triticum aestivum, TRZSS (wheat), read-out: Visual Growth Reduction (%) 14 Days After Application, TRZSS
[11] = CYPES: yellow nutsedge (Cyperus esculentus), read-out: Visual Growth Reduction (%) 14 Days After Application, CYPES
[12] = DIGSA: crabgrass (Digitaria sanguinalis), read-out: Visual Growth Reduction (%) 14 Days After Application, DIGSA
[13] = ECHCG: barnyardgrass (Echinochloa crus-galli), read-out: Visual Growth Reduction (%) 14 Days After Application, ECHCG
[14] = ORYSA: rice (Oryza sativa), read-out: Visual Growth Reduction (%) 14 Days After Application, ORYSA
[15] = SETFA: giant foxtail (Setaria faberi), read-out: Visual Growth Reduction (%) 14 Days After Application, SETFA
[16] = SORVU: grain sorghum (Sorghum vulgare), read-out: Visual Growth Reduction (%) 14 Days After Application, SORVU
[17] = ZEAMX: maize, corn (Zea mays), read-out: Visual Growth Reduction (%) 14 Days After Application, ZEAMX

Nc1cc(-c2ccc(I)c(F)c2)nc(C(=O)O)c1Cl [Compound 77, 4-amino-3-chloro-6-(3-fluoro-4-iodophenyl)picolinic acid]
pest or weed control at 70 g/ha [1, 3]: 85 to 94% | pest or weed control at 140 g/ha [1, 3]: 95 to 100% | pest or weed control at 70 g/ha [1, 4]: 95 to 100% | pest or weed control at 140 g/ha [1, 4]: 95 to 100% | pest or weed control at 70 g/ha [1, 5]: 75 to 84% | pest or weed control at 140 g/ha [1, 5]: 85 to 94% | pest or weed control at 70 g/ha [1, 6]: 95 to 100% | pest or weed control at 140 g/ha [1, 6]: 95 to 100% | pest or weed control at 70 g/ha [1, 7]: 95 to 100% | pest or weed control at 140 g/ha [1, 7]: 95 to 100% | pest or weed control at 70 g/ha [1, 8]: 85 to 94% | pest or weed control at 140 g/ha [1, 8]: 85 to 94% | pest or weed control at 70 g/ha [1, 9]: 0 to 29% | pest or weed control at 140 g/ha [1, 9]: 0 to 29% | pest or weed control at 70 g/ha [2, 10]: 45 to 59% | pest or weed control at 140 g/ha [2, 10]: 45 to 59% | pest or weed control at 70 g/ha [2, 11]: 0 to 29% | pest or weed control at 140 g/ha [2, 11]: 45 to 59% | pest or weed control at 70 g/ha [2, 12]: 75 to 84% | pest or weed control at 140 g/ha [2, 12]: 85 to 94% | pest or weed control at 70 g/ha [2, 13]: 60 to 74% | pest or weed control at 140 g/ha [2, 13]: 60 to 74% | pest or weed control at 70 g/ha [2, 14]: 0 to 29% | pest or weed control at 140 g/ha [2, 14]: 0 to 29% | pest or weed control at 70 g/ha [2, 15]: 0 to 29% | pest or weed control at 140 g/ha [2, 15]: 0 to 29% | pest or weed control at 70 g/ha [2, 16]: 45 to 59% | pest or weed control at 140 g/ha [2, 16]: 45 to 59% | pest or weed control at 70 g/ha [2, 17]: 0 to 29% | pest or weed control at 140 g/ha [2, 17]: 0 to 29%

— US9113629B2, “4-amino-6-(4-substituted-phenyl)-picolinates and 6-amino-2-(4-substituted-phenyl)-pyrimidine-4-carboxylates and their use as herbicides” (DOW AGROSCIENCES LLC, priority 2013, dated 2015)
